Data as given in patent US9540343B2 (Gilead Sciences, Inc., priority 2011, dated 2017).

Key:
HIV-IIIb = assay: Test A: Antiviral assay in MT4 cells; type: cell-based, HIV-1; conditions: Human immunodeficiency virus 1, IIIB, MT4, 120 h, read-out: % inhibition at 2 μM, percent inhibition of virus-induced cell killing, from dose response curve at 2 uM drug; MT-4 cells infected with HIV-IIIb, 5 days, CellTiter-Glo
in vitro = conditions: human, uninfected MT-4 cells, CC50 (nM), same protocol as Test A, CellTiter-Glo
Outline: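 Cytoprotection read-out: CellTiter-Glo chemiluminescence after 5 days at 37 °C of HIV-IIIb-infected MT-4 cells (m.o.i. 0.003) with compound in 10-point 3-fold dilutions, quadruplicate, 10% FBS. Cytotoxicity (CC50) measured identically without virus.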

| SMILES | inhibition at 2 µM (HIV-IIIb) [%] | CC50 at 5 days (in vitro) [nM] |
| --- | --- | --- |
| NC(=O)c1cccc(-c2cccnc2[C@H](Cc2cc(F)cc(Cl)c2)NC(=O)Cc2c[nH]c3ccc(O)cc23)c1 [Example 245F, (S)-3-(2-(2-(3-chloro-5-fluorophenyl)-1-(2-(5-hydroxy-1H-indol-3-yl)acetamido)ethyl)pyridin-3-yl)benzamide] | 71 | 30300 |
| NC(=O)c1cc(-c2cccnc2[C@H](Cc2cc(F)cc(F)c2)NC(=O)CC2C(=O)Nc3cc(F)ccc32)ccc1F (stereo partly drawn) [Example 246, 5-(2-((1S)-2-(3,5-difluorophenyl)-1-(2-(6-fluoro-2-oxoindolin-3-yl)acetamido)ethyl)pyridin-3-yl)-2-fluorobenzamide] | 1 | 47900 |
| CCOc1ccc(-c2cccnc2[C@H](Cc2cc(F)cc(F)c2)NC(=O)Cn2nc(C(F)F)c3c2C(F)(F)C2CC32)cc1 (stereo partly drawn) [Example 247, 2-(3-(difluoromethyl)-5,5-difluoro-3b,4,4a,5-tetrahydro-1H-cyclopropa[3,4]cyclopenta[1,2-c]pyrazol-1-yl)-N—((S)-2-(3,5-difluorophenyl)-1-(3-(4-ethoxyphenyl)pyridin-2-yl)ethyl)acetamide] | 39 | 26300 |
| NC(=O)c1cc(-c2cccnc2[C@H](Cc2cc(F)cc(F)c2)NC(=O)Cn2nc(C(F)(F)F)c3c2CNC3)ccc1F [Example 251, (S)-5-(2-(2-(3,5-difluorophenyl)-1-(2-(3-(trifluoromethyl)-5,6-dihydropyrrolo[3,4-c]pyrazol-1(4H)-yl)acetamido)ethyl)pyridin-3-yl)-2-fluorobenzamide] | 1 | > 53200 |
| CC(C)c1cc(C(F)(F)F)nn1CC(=O)N[C@@H](Cc1cc(F)cc(F)c1)c1ncccc1-c1ccc(F)c(C(N)=O)c1 [Example 252, (S)-5-(2-(2-(3,5-difluorophenyl)-1-(2-(5-isopropyl-3-(trifluoromethyl)-1H-pyrazol-1-yl)acetamido)ethyl)pyridin-3-yl)-2-fluorobenzamide] | 18 | 19200 |
| NC(=O)c1cc(-c2cccnc2[C@H](Cc2cccc(F)c2)NC(=O)CC2C(=O)Nc3ccc(F)cc32)ccc1F (stereo partly drawn) [Example 253, 2-fluoro-5-(2-((1S)-1-(2-(5-fluoro-2-oxoindolin-3-yl)acetamido)-2-(3-fluorophenyl)ethyl)pyridin-3-yl)benzamide] | 27 | > 53200 |
| N#Cc1nn(CC(=O)N[C@@H](Cc2cc(F)cc(F)c2)c2ncccc2-c2ccc(F)c(C(N)=O)c2)c2c1C1CC1C2(F)F (stereo partly drawn) [Example 254, 5-(2-((1S)-1-(2-(3-cyano-5,5-difluoro-3b,4,4a,5-tetrahydro-1H-cyclopropa[3,4]cyclopenta[1,2-c]pyrazol-1-yl)acetamido)-2-(3,5-difluorophenyl)ethyl)pyridin-3-yl)-2-fluorobenzamide] | 91 | 16600 |
| Cc1ccc2c(c1)NC(=O)C2CC(=O)N[C@@H](Cc1cc(F)cc(F)c1)c1ncccc1-c1ccc(F)c(C(N)=O)c1 (stereo partly drawn) [Example 255, 5-(2-((1S)-2-(3,5-difluorophenyl)-1-(2-(6-methyl-2-oxoindolin-3-yl)acetamido)ethyl)pyridin-3-yl)-2-fluorobenzamide] | 1 | > 53200 |
| COc1ccc2c(c1)NC(=O)C2CC(=O)N[C@@H](Cc1cc(F)cc(F)c1)c1ncccc1-c1ccc(F)c(C(N)=O)c1 (stereo partly drawn) [Example 256, 5-(2-((1S)-2-(3,5-difluorophenyl)-1-(2-(6-methoxy-2-oxoindolin-3-yl)acetamido)ethyl)pyridin-3-yl)-2-fluorobenzamide] | 15 | > 53200 |
| NC(=O)c1cc(-c2cccnc2[C@H](Cc2cccc(F)c2)NC(=O)Cc2cc(=O)[nH]c3ccccc23)ccc1F [Example 257, (S)-2-fluoro-5-(2-(2-(3-fluorophenyl)-1-(2-(2-oxo-1,2-dihydroquinolin-4-yl)acetamido)ethyl)pyridin-3-yl)benzamide] | 7 | > 53200 |
| NC(=O)c1cc(-c2cccnc2[C@H](Cc2cc(F)cc(F)c2)NC(=O)Cn2nc(C(F)(F)F)c3c2COC3)ccc1F [Example 258, (S)-5-(2-(2-(3,5-difluorophenyl)-1-(2-(3-(trifluoromethyl)-4,6-dihydro-1H-furo[3,4-c]pyrazol-1-yl)acetamido)ethyl)pyridin-3-yl)-2-fluorobenzamide] | 8 | > 53200 |
| Cc1ccc(C)c2c1NC(=O)C2CC(=O)N[C@@H](Cc1cc(F)cc(F)c1)c1ncccc1-c1ccc(F)c(C(N)=O)c1 (stereo partly drawn) [Example 259, 5-(2-((1S)-2-(3,5-difluorophenyl)-1-(2-(4,7-dimethyl-2-oxoindolin-3-yl)acetamido)ethyl)pyridin-3-yl)-2-fluorobenzamide] | 2 | 47600 |
| NC(=O)c1cc(-c2cccnc2[C@H](Cc2cc(F)cc(F)c2)NC(=O)Cn2nc(C(F)F)c3c2C(F)C2CC32)ccc1F (stereo partly drawn) [Example 260, 5-(2-((1S)-1-(2-(3-(difluoromethyl)-5-fluoro-3b,4,4a,5-tetrahydro-1H-cyclopropa[3,4]cyclopenta[1,2-c]pyrazol-1-yl)acetamido)-2-(3,5-difluorophenyl)ethyl)pyridin-3-yl)-2-fluorobenzamide] | 54 | 28100 |
| NC(=O)c1cc(-c2cccnc2[C@H](Cc2cc(F)cc(F)c2)NC(=O)Cn2nc3c(c2C(F)(F)F)CSC3)ccc1F [Example 261, (S)-5-(2-(2-(3,5-difluorophenyl)-1-(2-(3-(trifluoromethyl)-4,6-dihydro-2H-thieno[3,4-c]pyrazol-2-yl)acetamido)ethyl)pyridin-3-yl)-2-fluorobenzamide] | 6 | 21200 |
| Cc1cnc([C@H](Cc2cc(F)cc(F)c2)NC(=O)Cc2c[nH]c3ccc(O)cc23)c(-c2ccc(F)c(C(N)=O)c2)c1 [Example 262G, (S)-5-(2-(2-(3,5-difluorophenyl)-1-(2-(5-hydroxy-1H-indol-3-yl)acetamido)ethyl)-5-methylpyridin-3-yl)-2-fluorobenzamide] | 109 | > 51200 |
| NC(=O)c1cc(-c2cccnc2[C@H](Cc2cc(F)cc(F)c2)NC(=O)Cn2nc(C(F)(F)F)c3c2CCS(=O)(=O)C3)ccc1F [Example 263, (S)-5-(2-(2-(3,5-difluorophenyl)-1-(2-(5,5-dioxido-3-(trifluoromethyl)-6,7-dihydrothiopyrano[4,3-c]pyrazol-1(4H)-yl)acetamido)ethyl)pyridin-3-yl)-2-fluorobenzamide] | 17 | > 53200 |
| NC(=O)c1cc(-c2cccnc2[C@H](Cc2cccc(F)c2)NC(=O)CN2CC(=O)Nc3ccccc32)ccc1F [Example 264, (S)-2-fluoro-5-(2-(2-(3-fluorophenyl)-1-(2-(3-oxo-3,4-dihydroquinoxalin-1(2H)-yl)acetamido)ethyl)pyridin-3-yl)benzamide] | 24 | > 53200 |
| NC(=O)c1cc(-c2cccnc2[C@H](Cc2cc(F)cc(F)c2)NC(=O)Cn2nc(C(F)(F)F)c3c2CC(O)C3)ccc1F (stereo partly drawn) [Example 265] | 74 | > 53200 |
| NC(=O)c1cccc(-c2cccnc2[C@H](Cc2cc(F)cc(F)c2)NC(=O)Cn2ccc3cnc(Cl)nc32)c1 [Example 266C, (S)-3-(2-(1-(2-(2-chloro-7H-pyrrolo[2,3-d]pyrimidin-7-yl)acetamido)-2-(3,5-difluorophenyl)ethyl)pyridin-3-yl)benzamide] | 0 | 51900 |
| NC(=O)c1cc(-c2cccnc2[C@H](Cc2cc(F)cc(F)c2)NC(=O)CC2C(=O)Nc3ccc(F)cc32)ccc1F (stereo partly drawn) [Example 267, 5-(2-((1S)-2-(3,5-difluorophenyl)-1-(2-(5-fluoro-2-oxoindolin-3-yl)acetamido)ethyl)pyridin-3-yl)-2-fluorobenzamide] | 5 | > 52900 |
| O=C(Cn1nc(C(F)F)c2c1C(F)(F)C1CC21)N[C@@H](Cc1cc(F)cc(F)c1)c1ncccc1-c1ccc(OC2CC2)cc1 (stereo partly drawn) [Example 268, N—((S)-1-(3-(4-cyclopropoxyphenyl)pyridin-2-yl)-2-(3,5-difluorophenyl)ethyl)-2-(3-(difluoromethyl)-5,5-difluoro-3b,4,4a,5-tetrahydro-1H-cyclopropa[3,4]cyclopenta[1,2-c]pyrazol-1-yl)acetamide] | 27 | 27700 |
| NC(=O)c1cc(-c2cccnc2[C@H](Cc2cc(F)cc(F)c2)NC(=O)CN2CC(=O)Nc3ccccc32)ccc1F [Example 269, (S)-5-(2-(2-(3,5-difluorophenyl)-1-(2-(3-oxo-3,4-dihydroquinoxalin-1(2H)-yl)acetamido)ethyl)pyridin-3-yl)-2-fluorobenzamide] | 8 | > 53200 |
| NC(=O)c1cc(-c2cccnc2[C@H](Cc2cc(F)cc(F)c2)NC(=O)Cn2nc(C(F)(F)F)c3c2CCNC3=O)ccc1F [Example 270C, (S)-5-(2-(2-(3,5-difluorophenyl)-1-(2-(4-oxo-3-(trifluoromethyl)-4,5,6,7-tetrahydro-1H-pyrazolo[4,3-c]pyridin-1-yl)acetamido)ethyl)pyridin-3-yl)-2-fluorobenzamide] | 1 | > 53200 |
| NC(=O)c1cc(-c2cccnc2[C@H](Cc2cc(F)cc(F)c2)NC(=O)Cn2nc(C(F)(F)F)c3cc(F)ccc32)ccc1F [Example 271B, (S)-5-(2-(2-(3,5-difluorophenyl)-1-(2-(5-fluoro-3-(trifluoromethyl)-1H-indazol-1-yl)acetamido)ethyl)pyridin-3-yl)-2-fluorobenzamide] | 15 | 11400 |
